How the values were obtained:
[1] = Stability data of Afatinib dimaleate crystalline Form H3 on storage (PXRD, impurity, water content); type: physicochemical
Procedure: X-ray powder diffraction spectrum was measured on a bruker axs D8 advance X-ray powder diffractometer having a copper-a radiation. Adequate sample was gently flattered on a sample holder and scanned from 2 to 50 degrees two-theta, at 0.02 increment and scan speed of 0.2 Sec/Step. The sample was simply placed on the sample holder. The sample was rotated at 30 rpm at a voltage 40 KV and current 35 mA.

[2] = as above; type: physicochemical; set-up: Impurity: unit not given here
[3] = 25 ± 2° C./RH 60 ± 5%, 2nd Month
[4] = 25 ± 2° C./RH 60 ± 5%, 1st Month
[5] = 25 ± 2° C./RH 60 ± 5%, 3rd Month

PXRD ([1]; 5 ± 3° C., 1st Month): Form H3 | PXRD ([1]; 5 ± 3° C., 3rd Month): Form H3 | PXRD ([1]; 5 ± 3° C., Initial): Form H3 | PXRD [1, 3]: Form H3 | Impurity ([2]; 5 ± 3° C., 1st Month): 0.22 | Water Content ([2]; 5 ± 3° C., 1st Month): 1.34% | Impurity ([2]; 5 ± 3° C., 2nd Month): 0.26 | PXRD ([2]; 5 ± 3° C., 2nd Month): Form H3 | Water Content ([2]; 5 ± 3° C., 2nd Month): 1.4% | Impurity ([2]; 5 ± 3° C., 3rd Month): 0.27 | Water Content ([2]; 5 ± 3° C., 3rd Month): 1.26% | Impurity ([2]; 5 ± 3° C., Initial): 0.22 | Water Content ([2]; 5 ± 3° C., Initial): 1% | Impurity [2, 4]: 0.22 | PXRD [2, 4]: Form H3 | Water Content [2, 4]: 1.18% | Impurity [2, 3]: 0.38 | Water Content [2, 3]: 1.35% | Impurity [2, 5]: 0.43 | PXRD [2, 5]: Form H3 | Water Content [2, 5]: 1.56% | Impurity ([2]; 25 ± 2° C./RH 60 ± 5%, Initial): 0.22 | PXRD ([2]; 25 ± 2° C./RH 60 ± 5%, Initial): Form H3 | Water Content ([2]; 25 ± 2° C./RH 60 ± 5%, Initial): 1% | stability ([2]; at 5±3° C. and 25±2° C./RH (Relative humidity) 60±5%): stable
SMILES: CN(C)C/C=C/C(=O)Nc1cc2c(Nc3ccc(F)c(Cl)c3)ncnc2cc1O[C@H]1CCOC1 [Afatinib dimaleate crystalline Form H3, 2-Butenamide, N-[4-[(3-Chloro-4-fluorophenyl)amino]-7-[[(3S)-tetrahydro-3-furanyl]oxy]-6-quinazolinyl]-4(dimethylamino),(2E)-]

— patent US10329281B2, “Polymorphs and process for the preparation of quinazolinyl derivatives” (HETERO LABS LTD, priority 2015, dated 2019)
